The subject of data set [1] is A2780/T cells. Put plainly: Cell cycle analysis by flow cytometry in A2780/T. It counts as cell-based, human. Particulars: tangeretin 7.53 μM alone. As to the method:
A2780/T cells were harvested after 24-hours, 48-hour, or 72-hour treatment and washed twice with ice-cold PBS. The cells were fixed and permeabilized with 70% ice-cold ethanol overnight at 4° C. or −20° C. for 2 h. After one additional wash in PBS, cells were stained with a staining solution containing PI ([…]) and RNase A (250 μg/ml) for […] at room temperature. They were then pelleted, washed and suspended in PBS to a final concentration of 1×10^6/ml and analyzed by flow cytometry (BD FACS Aria, BD Biosciences, San Jose, Calif.).
A general note: In flow cytometry, cells or beads pass a laser one at a time.

The subject of data set [2] is A2780/T cells. Put plainly: SRB cell cytotoxicity assay in A2780/T. Conditions: tangeretin at 7.53 μM, all cell lines.
Protocol: (§2) Sulphorhodamine B (SRB) assays were carried out as previously described to assess cell density, based on sensitive measure of total cellular protein, which performed similarly compared with other proliferation assays such as MTT assay. Briefly, cells were seeded into flat bottomed 96-well plates at an initial density of 7.5×10^3 per well before treatment. […] After removing the medium, cells were fixed in 10% trichloroacetic acid for 1 h at 4° C. and then washed with water five times. 0.4% SRB dissolved in 1% v/v acetic acid was added and incubated 30 mm for staining. The cells were quickly washed with 1% acetic acid and left to dry overnight. The protein bound SRB was solubilized by adding 200 μl 10 mM Tris buffer per well and measured at wavelengths 490 nm using a plate reader (Spectra MAX 250; Molecular Devices, Sunnyvale, Calif.).
A further data set has as its system A2780 cells. Put plainly: Intracellular accumulation of DOX and Flutax-2 in A2780. It counts as cell-based, human. Particulars: parental A2780, 7.53 μM tangeretin, 8 h. How it is done:
(§1) A2780 or A2780/T cells (5×10^6) were cultured on the cover glass (ISO LAB 20×20 mm). […] After treatment, cells were fixed in 4 wt % formaldehyde (Sigma-Aldrich). Nuclear DNA was stained with 1 μg/mL blue-fluorescent DAPI (1 mg/mL in H2O stock solution; Invitrogen D1306). One drop of fluorescent preservation solution (fluorsave reagent, CALBIOCHEM) was added before observation. Imaging was carried out for comparing the intracellular accumulation of DOX and flutax-2 with a Fluorescence Microscopy (Leica DM2500, Leica, Germany).
Cells were detached, re-suspended in 500 μl of PBS after washed twice with cold PBS, and analyzed by flow cytometry (BD FACS Aria, BD Biosciences, San Jose, Calif.). Excitation and emission wavelengths (nm) used for DOX and flutax-2 were as follows: 480 to 585; and 496 to 524. Quinidine (QND, 20 μM), a known ABCB1 inhibitor, was used as a positive control.

The conditions of data set [3]: human, plasma; cited from earlier work.
Data set [4] in a line: in vitro. Particulars: human, A2780 cells.
Data set [5] has as its system A2780/T cells. Put plainly: Intracellular accumulation of DOX and Flutax-2 in A2780/T. The data set is classed as cell-based, human. Conditions: 8 h, 7.53 μM tangeretin or 20 μM QND. How it is done:
as §1, with “cells” for “A2780 or A2780/T cells”, “Germany). […] Cells were detached, re-suspended in 500 μl of PBS after washed twice with cold PBS, and analyzed by flow cytometry (BD FACS Aria, BD Biosciences, San Jose, Calif.). Excitation and emission wavelengths (nm) used for DOX and flutax-2 were as follows: 480 to 585; and 496 to 524.” for “Germany).”

Data set [6] deals with T1, recombinant human ABCB1 membranes (Homo sapiens, UniProt P08183).
T1 construct: purchased Promega
Put plainly: ABCB1 ATPase activity assay (Pgp-Glo). It counts as biochemical. How it is done: Sodium orthovanadate (Na3VO4) was used as an ABCB1 ATPase inhibitor. […] Luminescence was initiated by ATP detection buffer. The plate (white opaque 96-well, corning, USA) was further incubated at room temperature for […] to develop luminescent signal, and was read with luminometer (infinite M200 PRO,TECAN, Switzerland).

The nature of data set [7]: in vitro. Particulars: human, A2780/T cells.
Protocol: as §2
Data set [8] has as its system MDR1 mRNA / ABCB1 protein in A2780/T cells. Put plainly: RT-PCR and Western blot of ABCB1 expression. The data set is classed as cell-based, human. Particulars: tangeretin 0.83-7.53 μM, 48 hours. As to the method:
RT-PCR was performed to evaluate MDR1 mRNA expression. mRNA from cell lysates were purified by binding to poly(dT) magnetic beads (Life technologies) and reverse transcribed by using SuperScript II (Life technologies). Standard quantitative RT-PCR was performed in duplicates at least two to three times by using SYBR Green (Molecular Probes) protocols on the ViiA™ 7 Real-Time PCR System (Life technologies). The primer sequences: 5′-[…]-3′ (SEQ ID […] NO:1) and 3′-[…]-5′ (SEQ ID NO:2) for MDR1, and 5′-[…]-3′ (SEQ ID NO:3) and 3′-[…]-[…]-5′ (SEQ ID NO:4) for control gene eukaryotic translation initiation factor (TIF). RT-PCR data was normalized by measuring average cycle threshold (Ct) ratios between candidate genes and control gene TIF.
The total cellular samples were harvested and rinsed twice with ice-cold PBS buffer. Cell extracts were lysed in RIPA buffer (50 mM Tris (pH 7.4), 150 mM NaCl, 1% Triton X-100, 1% sodium deoxycholate, 0.1% SDS, sodium orthovanadate, sodium fluoride and EDTA) containing protease inhibitor cocktails (Roche Life Science, USA). Protein concentration was determined using the BCA protein assay kit. Equal amounts of cell lysates were resolved by SDS-PAGE and subsequently electrophoretically transferred onto PVDF membranes (Millipore, Darmstadt, Germany). […]
For orientation: A western blot detects proteins with antibodies after separation by electrophoresis.

Data set [9] relates to A2780/T cells. Put plainly: Combination index, Chou-Talalay method (CalcuSyn). The data set is classed as cell-based, human. Particulars: Homo sapiens, read-out: Dose tangeretin at Fa 0.5 (ED50), CalcuSyn simulation, alone or in combination. How it is done:
Combination index (CI) was calculated to quantitatively depict synergistic ([…], additive (CI=1), or antagonistic (CI>1) effect. With the use of CalcuSyn software v. 2.1 (Bio-soft), synergy is further refined as synergism (combination index=0.3-0.7), strong synergism (combination index=0.1-0.3), and very strong synergism (combination index<0.1).

The next data set concerns p53. Put plainly: Western blot of p53 expression. Conditions: tangeretin at various concentrations, 48 hours, Western blot. It counts as cell-based, human. How it is done:
The total cellular samples were harvested and rinsed twice with ice-cold PBS buffer. Cell extracts were lysed in RIPA buffer (50 mM Tris (pH 7.4), 150 mM NaCl, 1% Triton X-100, 1% sodium deoxycholate, 0.1% SDS, sodium orthovanadate, sodium fluoride and EDTA) containing protease inhibitor cocktails (Roche Life Science, USA). Protein concentration was determined using the BCA protein assay kit. Equal amounts of cell lysates were resolved by SDS-PAGE and subsequently electrophoretically transferred onto PVDF membranes (Millipore, Darmstadt, Germany). After blocking in tris-buffered saline containing 0.1% of Tween20 (TBST) with 5% (w/v) skim milk (Nestle Carnation, New Zealand) for 2 h at room temperature, the membranes were incubated with primary and secondary antibodies and subsequently visualized with an enhanced chemiluminescence detection kit (Thermo Scientific™ SuperSignal™ West Pico Chemiluminescent Substrate, USA). β-Actin was used as the loading control for the experimental data analysis.

Data set [10] deals with P-gp (ABCB1 transporter) in Caco-2 cells (Homo sapiens, UniProt P08183).
For data set [11] the following is noted: rat, plasma; cited from earlier work.
The test system of data set [12] is A2780/T cells. Put plainly: Apoptosis by Annexin-V/PI double staining. The data set is classed as cell-based, human. As to the method:
After treatment, 1×10^6 cells were collected, washed and suspended in 100 μl of binding buffer (10 mM N-2-hydroxyethylpiperazine-N,-2-ethanesulfonic acid/NaOH, 140 mM NaCl, 2.5 mM CaCl2, pH 7.4). Apoptotic cells were identified by double supravital staining with 5 μl recombinant FITC (fluorescein isothiocyanate)-conjugated Annexin-V and 5 μl PI (50 μg/ml). The cells were stained for […] at room temperature in the dark, and analyzed by fluorescence-activated cell sorting cater-plus flow cytometry. Data acquisition and analysis were performed in BD FACS Aria with FlowJo software.

“Also recorded” adds a separate entry of the source. Read-outs that look alike come from different tables or passages of the source.

T1 sequence (P08183 whole entry): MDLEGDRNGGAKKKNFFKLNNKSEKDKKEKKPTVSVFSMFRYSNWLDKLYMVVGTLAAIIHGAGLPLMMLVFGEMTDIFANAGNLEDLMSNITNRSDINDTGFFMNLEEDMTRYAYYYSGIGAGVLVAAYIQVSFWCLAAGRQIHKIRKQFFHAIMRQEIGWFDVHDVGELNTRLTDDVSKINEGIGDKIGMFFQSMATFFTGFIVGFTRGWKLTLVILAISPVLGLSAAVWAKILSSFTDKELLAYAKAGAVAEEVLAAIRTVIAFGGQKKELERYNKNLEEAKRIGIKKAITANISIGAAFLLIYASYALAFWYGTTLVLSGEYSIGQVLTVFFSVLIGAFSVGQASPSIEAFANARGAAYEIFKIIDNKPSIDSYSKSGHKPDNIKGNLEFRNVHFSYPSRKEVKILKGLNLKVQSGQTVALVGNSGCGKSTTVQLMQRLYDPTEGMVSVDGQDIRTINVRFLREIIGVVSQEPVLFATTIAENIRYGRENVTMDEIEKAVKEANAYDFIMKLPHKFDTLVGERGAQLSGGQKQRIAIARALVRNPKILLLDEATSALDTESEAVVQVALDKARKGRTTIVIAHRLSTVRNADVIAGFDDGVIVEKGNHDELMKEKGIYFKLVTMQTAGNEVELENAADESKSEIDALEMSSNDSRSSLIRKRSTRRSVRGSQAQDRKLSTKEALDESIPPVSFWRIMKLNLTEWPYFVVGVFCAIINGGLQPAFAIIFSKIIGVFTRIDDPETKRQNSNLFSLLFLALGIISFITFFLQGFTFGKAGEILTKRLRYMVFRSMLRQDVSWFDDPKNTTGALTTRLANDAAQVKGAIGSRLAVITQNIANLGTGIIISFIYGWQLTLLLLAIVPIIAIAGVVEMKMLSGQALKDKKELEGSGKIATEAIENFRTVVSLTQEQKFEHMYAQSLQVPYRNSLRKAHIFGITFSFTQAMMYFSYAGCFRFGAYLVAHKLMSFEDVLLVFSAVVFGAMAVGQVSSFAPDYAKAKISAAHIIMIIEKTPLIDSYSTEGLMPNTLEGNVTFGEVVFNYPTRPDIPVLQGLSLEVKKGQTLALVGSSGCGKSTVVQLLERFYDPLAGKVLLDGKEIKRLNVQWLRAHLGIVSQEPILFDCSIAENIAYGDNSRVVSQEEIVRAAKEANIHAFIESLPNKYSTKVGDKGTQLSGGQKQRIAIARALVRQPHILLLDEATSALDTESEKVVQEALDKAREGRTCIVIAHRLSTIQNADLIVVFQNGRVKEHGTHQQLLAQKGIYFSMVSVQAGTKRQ
Sequence of P-gp (ABCB1 transporter) in Caco-2 cells (P08183 whole entry): as above

As a reminder, the Cmax is the peak of the concentration-time curve. The IC50 is the concentration that inhibits the measured activity by half. As to `COc1ccc(-c2cc(=O)c3c(OC)c(OC)c(OC)c(OC)c3o2)cc1` [Tangeretin, 5,6,7,8,4′-pentamethoxyflavone], the “effect on the cell cycle” value in the data set on A2780/T cells [1] is “no effect”. The cells survived entry in the data set on A2780/T cells [2] is recorded as “more than 90%”. Besides, the “DOX and Flutax-2 levels” value with A2780 cells was “did not significantly alter; also recorded: no effect”. For the same compound, the Cmax in data set [3] and in data set [11] was 1000 to 5000 nM each time. Also, the IC50 in the data set “in vitro [4]” amounted to 35.6 µM; in data set [6] (200 μM verapamil, read-out: IC50 for inhibiting verapamil-stimulated P-gp ATPase activity), 7.87 µM; in the data set “in vitro [7]”, 36.4 µM. Also, the “intracellular accumulations of DOX and Flutax-2” value in the data set with A2780/T cells [5] was “remarkably enhanced; also recorded: higher than that of untreated A2780/T”. Further, the EC50 in [6] (recombinant human ABCB1 membranes, 37° C., 40 min, read-out: EC50 for stimulating P-gp ATPase activity) was 11.6 µM; in the data set with A2780/T cells [9], 67.5 µM. Moreover, the “maximal stimulation of ATPase activity” value in [6] (relative to the basal activity) is 3 fold. Further, the “mRNA or protein level of ABCB1” value in data set [8] was “did not influence”; in [8] (listed as tangeretin) it was “did not alter”. In addition, in the data set with p53, the p53 expression entry is recorded as “unregulated the p53 expression”. Also, the “inhibitory effect on efflux compared with 20 μM QND” value in [10] is recorded as “more potent than that of QND”; in [10] (human, 2 h, 2.51 μM) it was “stronger than that of 20 μM QND”. Further, in the data set on A2780/T cells [12] (7.53 μM tangeretin or 0.94 μM PTX alone), the “apoptosis induction, single treatment” value is listed as “did not show apoptosis induction”. For the same compound, in the data set on A2780/T cells [12] (with 0.83, 2.51 and 7.53 μM tangeretin, A2780/T), the “apoptosis induced by 0.94 μM PTX” value is listed as “significantly increase apoptosis”.

Source of the values: patent US9808439B2 (Macau University of Science and Technology, priority 2015, dated 2017).
